Among the data in ChEMBL document CHEMBL1147574, “Synthesis of a novel peptidic photoaffinity probe for the PTP-1B enzyme” (Bioorg Med Chem Lett, 2004) are IC50 and Adduct formation values, retold here.

The nature of assay [1]: Inhibitory activity of compound against phosphotyrosine phosphatase-1B.
Assay [2] in a line: Percent adduct formed by co-valent binding to the enzyme was assessed by irradiating a solution of the photoprobe and the PTP1B enzyme with a 40W lamp.

What is called pIC50 is −log10 of the IC50, conventionally taken in molar units. A higher pIC50 goes with a low IC50.

Molecules are shown by their SMILES. pIC50: −log10 of the molar value.

On to `NC(=O)[C@H](Cc1ccc(C(F)(F)P(=O)(O)O)c(Br)c1)NC(=O)[C@H](Cc1ccc(C(F)(F)P(=O)(O)O)c(Br)c1)NC(=O)c1cc(Br)cc(C2(C(F)(F)F)N=N2)c1`, for which the pIC50 in assay [1] is 9.52. In assay [2], this compound gave an Adduct formation of 6%.
Compound `NC(=O)[C@H](Cc1ccc(C(F)(F)P(=O)(O)O)cc1)NC(=O)[C@H](Cc1ccc(C(F)(F)P(=O)(O)O)cc1)NCc1cc(Br)cc(C2(C(F)(F)F)N=N2)c1` gave a pIC50 in assay [1] of 5.77.
`NC(=O)[C@H](Cc1ccc(C(F)(F)P(=O)(O)O)c(Br)c1)NC(=O)[C@H](Cc1ccc(C(F)(F)P(=O)(O)O)c(Br)c1)NC(=O)c1cc(I)cc(C2(C(F)(F)F)N=N2)c1` gave a pIC50 in assay [1] of 8.40. Further, in assay [2], the Adduct formation was found to be 8%.
For `NC(=O)[C@H](Cc1ccc(C(F)(F)P(=O)(O)O)cc1)NC(=O)[C@H](Cc1ccc(C(F)(F)P(=O)(O)O)cc1)NC(=O)c1cc(I)cc(C2(C(F)(F)F)N=N2)c1` the same measures were 8.05 and 8%.
In the same order, the values of `NC(=O)[C@H](Cc1ccc(C(F)(F)P(=O)(O)O)cc1)NC(=O)[C@H](Cc1cc(Br)cc(C2(C(F)(F)F)N=N2)c1)NC(=O)c1cc(Br)cc(C2(C(F)(F)F)N=N2)c1` are 7.82 and below 5%.
The compound `NC(=O)[C@H](Cc1ccc(C(F)(F)P(=O)(O)O)cc1)NC(=O)[C@H](Cc1ccc(C(F)(F)P(=O)(O)O)cc1)NC(=O)[C@H](CCC(=O)O)NCc1cc(Br)cc(C2(C(F)(F)F)N=N2)c1` gave a pIC50 in assay [1] of 8.52. The compound also returned an Adduct formation in assay [2] of 5%.
Compound `NC(=O)[C@H](Cc1ccc(C(F)(F)P(=O)(O)O)cc1)NC(=O)[C@H](Cc1ccc(C(F)(F)P(=O)(O)O)cc1)NC(=O)c1cc(Br)cc(C2(C(F)(F)F)N=N2)c1` had a negative logarithm of the IC50 (pIC50) in assay [1] of 7.92.
Still for that read-out and setting: with `NC(=O)[C@H](Cc1ccc(C(F)(F)P(=O)(O)O)cc1)NC(=O)c1cc(Br)cc(C2(C(F)(F)F)N=N2)c1` the figure was 5.02.
In assay [1], `NC(=O)[C@H](Cc1ccc(C(F)(F)P(=O)(O)O)cc1)NC(=O)[C@H](Cc1ccc(C(F)(F)P(=O)(O)O)cc1)NC(=O)[C@H](CCC(=O)O)NC(=O)c1cc(Br)cc(C2(C(F)(F)F)N=N2)c1` showed a pIC50 of 7.85. The compound also had an Adduct formation in assay [2] of 8%.
